Source: ChEMBL document CHEMBL1201862, “PubChem BioAssay data set” (2004)
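A five-concentration, 48-hour dose response in 96-well plates underlies each endpoint, interpolated linearly between surrounding concentrations. GI50 = concentration required for 50% inhibition of growth.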 Activity calls are given as the source filed them. Cut-off read from the data, not from the text of the source: active = GI50 up to about 1.1 µM and inactive = higher.

Experiments:
Assay in all cases: NCI anticancer screen, dose series, 48 h
786-0 = test system: 786-0
CAKI-1 = test system: CAKI-1
DU-145 = test system: DU-145
HCT-116 = test system: HCT-116
HOP-92 = test system: HOP-92
IGROV-1 = test system: IGROV-1
KM12 = test system: KM12
MCF7 = test system: MCF7
MDA-MB-435 = test system: MDA-MB-435
NCI-H522 = test system: NCI-H522
NCI/ADR-RES = test system: NCI/ADR-RES
OVCAR-3 = test system: OVCAR-3
OVCAR-4 = test system: OVCAR-4
SF-295 = test system: SF-295
SK-MEL-28 = test system: SK-MEL-28
SK-MEL-2 = test system: SK-MEL-2
SK-OV-3 = test system: SK-OV-3
SNB-19 = test system: SNB-19
NCI-H226 = test system: NCI-H226

Structure (SMILES)	GI50 (786-0)	GI50 (CAKI-1)	GI50 (DU-145)	GI50 (HCT-116)	GI50 (HOP-92)	GI50 (IGROV-1)	GI50 (KM12)	GI50 (MCF7)	GI50 (MDA-MB-435)	GI50 (NCI-H522)	GI50 (NCI/ADR-RES)	GI50 (OVCAR-3)	GI50 (OVCAR-4)	GI50 (SF-295)	GI50 (SK-MEL-28)	GI50 (SK-MEL-2)	GI50 (SK-OV-3)	GI50 (SNB-19)	GI50 (NCI-H226)
O=c1nc(Oc2c(F)c(F)c(F)c(F)c2F)ccn1C1OC(CO)C(O)C1O (centres undefined)	> 100 µM (inactive)	> 100 µM (inactive)	> 100 µM (inactive)	> 100 µM (inactive)	> 100 µM (inactive)	> 100 µM (inactive)	> 100 µM (inactive)	> 100 µM (inactive)	> 100 µM (inactive)	54.5 µM (inactive)	> 100 µM (inactive)	53.8 µM (inactive)	> 100 µM (inactive)	> 100 µM (inactive)	> 100 µM (inactive)	> 100 µM (inactive)	> 100 µM (inactive)	> 100 µM (inactive)	–
O=C1c2cc([N+](=O)[O-])cnc2S(=O)(=O)N1c1ccc(Oc2ccccc2)cc1	> 100 µM (inactive)	–	> 100 µM (inactive)	> 100 µM (inactive)	> 100 µM (inactive)	> 100 µM (inactive)	> 100 µM (inactive)	> 100 µM (inactive)	> 100 µM (inactive)	> 100 µM (inactive)	> 100 µM (inactive)	> 100 µM (inactive)	> 100 µM (inactive)	> 100 µM (inactive)	> 100 µM (inactive)	> 100 µM (inactive)	> 100 µM (inactive)	> 100 µM (inactive)	> 100 µM (inactive)
O=C1CC(=O)NC(NN2C(=O)/C(=C/c3ccccc3)N=C2c2ccccc2)=N1	> 100 µM (inactive)	> 100 µM (inactive)	> 100 µM (inactive)	> 100 µM (inactive)	> 100 µM (inactive)	> 100 µM (inactive)	> 100 µM (inactive)	> 100 µM (inactive)	> 100 µM (inactive)	> 100 µM (inactive)	> 100 µM (inactive)	> 100 µM (inactive)	> 100 µM (inactive)	> 100 µM (inactive)	> 100 µM (inactive)	> 100 µM (inactive)	> 100 µM (inactive)	–	> 100 µM (inactive)
Cc1cn([C@@H]2C[C@H]2CO)c(=O)[nH]c1=O	> 100 µM (inactive)	> 100 µM (inactive)	> 100 µM (inactive)	> 100 µM (inactive)	> 100 µM (inactive)	> 100 µM (inactive)	> 100 µM (inactive)	> 100 µM (inactive)	> 100 µM (inactive)	> 100 µM (inactive)	> 100 µM (inactive)	–	> 100 µM (inactive)	–	> 100 µM (inactive)	> 100 µM (inactive)	–	> 100 µM (inactive)	> 100 µM (inactive)
C=CCNC1=C2C[C@@H](C)C[C@@H](OC)[C@H](OC(=O)CN(C)C)[C@H](C)/C=C(\C)[C@@H](OC(N)=O)[C@H](OC)/C=C\C=C(/C)C(=O)NC(=CC1=O)C2=O	0.671 µM (active)	1.29 µM (inactive)	< 0.01 µM (active)	0.0871 µM (active)	6.12 µM (inactive)	0.0942 µM (active)	0.024 µM (active)	0.0245 µM (active)	0.042 µM (active)	0.183 µM (active)	8.22 µM (inactive)	0.286 µM (active)	3.41 µM (inactive)	0.128 µM (active)	0.0897 µM (active)	0.0608 µM (active)	0.0279 µM (active)	0.585 µM (active)	–
CCc1ccccc1NNc1cc(=O)[nH]c(=O)[nH]1	16.6 µM (inactive)	4.09 µM (inactive)	46.2 µM (inactive)	16.7 µM (inactive)	16.6 µM (inactive)	19.5 µM (inactive)	17.3 µM (inactive)	19.4 µM (inactive)	19.1 µM (inactive)	–	13.3 µM (inactive)	17.1 µM (inactive)	20.3 µM (inactive)	17.9 µM (inactive)	18.1 µM (inactive)	16.6 µM (inactive)	22.6 µM (inactive)	20.3 µM (inactive)	18.5 µM (inactive)
Clc1ccc(OCc2nnc(CCCCCCCCc3nnc(COc4ccc(Cl)cc4)o3)o2)cc1	31.8 µM (inactive)	39.7 µM (inactive)	68.7 µM (inactive)	10.5 µM (inactive)	31.7 µM (inactive)	–	> 100 µM (inactive)	28.2 µM (inactive)	> 100 µM (inactive)	31.8 µM (inactive)	> 100 µM (inactive)	> 100 µM (inactive)	> 100 µM (inactive)	> 100 µM (inactive)	> 100 µM (inactive)	> 100 µM (inactive)	57.8 µM (inactive)	34.1 µM (inactive)	> 100 µM (inactive)
